Non-standard residues stand in square brackets, D forms with d. Residues, ends and D or L forms follow the SMILES beside them. *: point of attachment. Dolaproine = CO[C@@H]([C@@H]1CCCN1)[C@@H](C)C(=O)O; Dil = CC[C@H](C)[C@H](NC)[C@@H](CC(=O)O)OC; NMe2Val = CC(C)[C@@H](C(=O)*)N(C)C; NH(3-hydroxypropyl) = OCCCN*
Experiment: Tolerability of Auristatin F-hydroxypropylamide (MTD study)
Type: in vivo, mice
Conditions: n=6
From the text: The vehicle control group received physiological saline.

For CC[C@H](C)[C@@H]([C@@H](CC(=O)N1CCC[C@H]1[C@H](OC)[C@@H](C)C(=O)N[C@@H](Cc1ccccc1)C(=O)NCCCO)OC)N(C)C(=O)[C@@H](NC(=O)[C@H](C(C)C)N(C)C)C(C)C [AF-HPA, auristatin F hydroxypropyl amide] (NMe2Val-V[Dil][Dolaproine]F-{NH(3-hydroxypropyl)}), the Mortality or morbidity (3.2 mg/kg single IV dose) was 1 animal died on day 7, 3 and the Mortality or morbidity (4.7 mg/kg single IV dose) was 1 animal died on Day 3, 1.

— patent publication US9849191B2, “Protein-polymer-drug conjugates” (MERSANA THERAPEUTICS, INC., priority 2013, dated 2017)
